Assay results as given in the OPERA property sets (Mansouri et al. 2018).
Peptide text beside a SMILES is read from it.

Compound	logP
c1ccc2c(c1)OCO2	2.08
CCCCCC(C)O (stereo not given)	2.31
CNc1ccccc1	1.66
Cc1cccc2cc[nH]c12	2.56
O=C(O)Cc1ccc(F)cc1	1.55
COc1cnnc2ccccc12	1.41
O=CC(Cl)(Cl)Cl	0.99
COC1C(OC(C)=O)CC(=O)OC(C)CC=CC=CC(O)C(C)CC(CC=O)C1OC1OC(C)C(OC2CC(C)(O)C(OC(=O)CC(C)C)C(C)O2)C(N(C)C)C1O (stereo not given)	2.39
O=C1CCCO1	-0.64
CC(C)N(Cc1cccnc1)C(C)C	2.27
Oc1cccnc1	0.48
Cc1ccc(S(N)(=O)=O)cc1	0.82
CCCCCOCc1cccc(NC(=O)OCCN2CCCCC2)c1	4.2
NC(=O)Nc1cccc(F)c1	1.29
CNC(=S)NNc1ccccc1	1.17
Clc1ccc(C(c2ccc(Cl)cc2)C(Cl)(Cl)Cl)cc1	6.91
COP(=S)(OC)SCN1C(=O)c2ccccc2C1=O	2.78
O=S(=O)(Nc1ccccc1)c1ccccc1	2.58
CCc1cnc(NS(=O)(=O)c2ccc(N)cc2)nc1	0.9
Cc1c(NC(=O)C(C)N(C)C)c(=O)n(-c2ccccc2)n1C (stereo not given)	-0.05
Cc1cccc2c(N)cnnc12	1.57
COC(=O)C=Cc1ccccc1	2.62
O=S(=O)(c1ccccc1)c1ccccc1	2.4
c1ccc(C2CO2)cc1 (stereo not given)	1.61

Compound	logP
C1CCNC1	0.46
Cc1nc(-c2ccccc2)c2ccccc2n1	3.1
Oc1c(Cl)ccc(Cl)c1Cl	3.77
NC(=O)Nc1ccc(Oc2ccccc2)cc1	2.8
CCC(Cl)(CC)C(=O)NC(N)=O	1.4
Nc1ccccc1F	1.26
CS(=O)(=O)c1c(F)c(F)c(F)c(F)c1F	1.11
O=COc1ccccc1	1.26
O=C(CCCN1CCN(c2ccccn2)CC1)c1ccc(F)cc1	3.3
CC(=O)OCCBr	1.11
O=C(O)C=CC=Cc1ccccc1	3.15
Oc1ccccc1O	0.88
O=C(NP(=O)(N1CC1)N1CC1)c1ccc(Br)cc1	1.63
Cc1ccccc1S(I)=C(N(C)C)N(C)C (stereo not given)	-0.1
CC(=O)Nc1cccc(C(F)(F)F)c1	2.56
Cc1cc(C(=O)NNCc2ccccc2)no1	1.49
COc1ccc([N+](=O)[O-])cc1N	1.47
CC(=O)c1ccc(OCC(=O)O)cc1	0.87
O=C(Nc1ccccc1)N(Cc1ccc(Cl)cc1)C1CCCC1	4.82
c1ccc(COCc2ccccc2)cc1	3.31
COc1cc(CC(C)N)c(OC)cc1C (stereo not given)	2.24
Oc1ccc(O)cc1	0.59
C=CCCCCCCCCC(=O)O	3.86
COc1ccc(O)c2ncccc12	2.06

Compound	logP
CCc1cccc2cccnc12	2.93
CCCCCCCCBr	4.89
CCCCCCC(C)(C)c1ccc(C2CC(O)CCC2CCCCO)c(O)c1 (stereo not given)	6.68
CC(C)NCc1cccnc1	0.82
CCC(CNC)c1ccccc1 (stereo not given)	2.82
CCCc1nc2cccc(C)n2c(=O)c1CC	2.37
OCCBr	0.23
CNc1ccc(C)cc1	2.15
CN(C)C(=O)Nc1cccc(F)c1	1.37
c1ccc(OCCOc2ccccc2)cc1	3.81
CCOC(=O)c1ccoc1	1.78
Nc1ccc(C(=O)Oc2ccc(Br)cc2)c(O)c1	3.46
NC(=O)NO	-1.8
CC[C@H](C)[C@H](NC(C)=O)C(=O)N[C@@H](CC(N)=O)C(N)=O (Ac-Ile-Asn-NH2)	-1.41
c1ccc2c(c1)OCCO2	2.01
CC[n+]1cccc2ccccc21.[Br-]	-2.76
CCOC(=O)C=Cc1ccc(O)c(O)c1	2.56
CC(C(=O)O)(c1ccccc1)c1ccccc1	2.69
Nc1ccc(Sc2ccc(N)cc2)cc1	2.18
Cc1[nH]cnc1CSCCNC1=NS(=O)(=O)CCN1	-0.74
CCBr	1.61
CN(C)N=Nc1nc[nH]c1C(N)=O	-0.24
